Laboratory results reported in patent publication US20060069132A1, “Azolecarboxamide herbicides” (priority 2004, published 2006).

Legend:
morningglory = test: Test B pre-/postemergence herbicide test; type: in vivo, Ipomoea coccinea; conditions: for Plant response rating (0 to 100 scale), Morningglory: 0 is no effect
In short: (§1)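 Species tested were Echinochloa crus-galli, Ipomoea coccinea, Xanthium strumarium and Oryza sativa, treated both before emergence and at the 1- to 4-leaf stage; rice and barnyardgrass were also tested under flooding at 2 leaves. Greenhouse incubation lasted 13–15 days before visual 0–100 scoring.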

barnyardgrass [1] = test: Test B pre-/postemergence herbicide test; type: in vivo, Echinochloa crus-galli; conditions: for Plant response rating (0 to 100 scale), Barnyardgrass: 0 is no effect; for Barnyardgrass plant response rating: postemergence
In short: as §1

lambsquarters = test: Test B pre-/postemergence herbicide test; type: in vivo, Chenopodium album; conditions: for Plant response rating (0 to 100 scale), Lambsquarters: 0 is no effect
In short: (§2)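 Evaluation is visual, comparing treated with control plants on a scale where 0 means no effect and 100 means full control. Treatments were preemergence, or postemergence on seedlings 2–18 cm tall, and held 13–15 days in the greenhouse.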

corn = test: Test B pre-/postemergence herbicide test; type: in vivo, Zea mays; conditions: for Plant response rating (0 to 100 scale), Corn: 0 is no effect; for Corn plant response rating: postemergence
In short: as §2

blackgrass = test: Test B postemergence herbicide test; type: in vivo, Alopecurus myosuroides; conditions: postemergence
In short: (§3)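 Plants grow to 1- to 4-leaf stage (2–18 cm) for postemergence spraying, or to 2-leaf stage for the paddy test. Formulated compound is applied. Greenhouse holding lasts 13–15 days. Response is scored visually relative to controls, 0 no effect to 100 complete control; a dash means no result.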

rice [2] = test: Test B flooded paddy test; type: in vivo, Oryza sativa; conditions: 1000 g ai/ha, scale 0 to 100 (0 no effect, 100 complete control)
In short: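 Each value is a visual 0–100 response rating taken against controls 13 to 15 days after treatment in the greenhouse. Plants received formulated chemical postemergence at the 1- to 4-leaf stage or, in flooded paddy, at the 2-leaf stage.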

barnyardgrass [3] = test: Test B flooded paddy test; type: in vivo, Echinochloa crus-galli; conditions: 1000 g ai/ha, scale 0 to 100 (0 no effect, 100 complete control)
In short: as §3

[4] = tested on: smallflower umbrella sedge; test: Test C flooded paddy test; type: in vivo, Cyperus difformis
Procedure: (§4) At the same time, plants selected from these crop and weed species and also winter barley (Hordeum vulgare L.), blackgrass (Alopecurus myosuroides Huds.), canarygrass (Phalaris minor Retz.), chickweed (Stellaria media (L.) Vill.), downy bromegrass (Bromus tectorum L.), green foxtail (Setaria viridis (L.) Beauv.), Italian ryegrass (Lolium multiflorum Lam.), wheat (Triticum aestivum L.), wild oat (Avenafatua L.) and windgrass (Apera spica-venti (L.) Beauv.) were treated with postemergence applications of some of the test chemicals formulated in the same manner. Plants ranged in height from 2 to 18 cm (1- to 4-leaf stage) for postemergence treatments. Plant species in the flooded paddy test consisted of rice (Oryza sativa), smallflower umbrella sedge (Cyperus difformis L.), ducksalad (Heteranthera limosa (Sw.) Willd.) and barnyardgrass (Echinochloa crus-galli (L.) Beauv.) grown to the 2-leaf stage for testing. Treated plants and controls were maintained in a greenhouse for 12 to 14 days, after which time all species were compared to controls and visually evaluated. Plant response ratings, summarized in Table C, are based on a scale of 0 to 100 where 0 is no effect and 100 is complete control. A dash (-) response means no test result.

ducksalad [5] = test: Test C flooded paddy test; type: in vivo, Heteranthera limosa; conditions: for Plant response rating, Ducksalad: 500 g ai/ha, visual rating after 12 to 14 days
Procedure: as §4

ducksalad [6] = test: Test B flooded paddy test; type: in vivo, Heteranthera limosa; conditions: 1000 g ai/ha, scale 0 to 100 (0 no effect, 100 complete control)
In short: as §3

cocklebur = test: Test B pre-/postemergence herbicide test; type: in vivo, Xanthium strumarium; conditions: for Plant response rating (0 to 100 scale), Cocklebur: 0 is no effect; for Cocklebur plant response rating: postemergence
In short: as §1

rice [7] = test: Test C flooded paddy test; type: in vivo, Oryza sativa; conditions: for Plant response rating, Rice: 500 g ai/ha, visual rating after 12 to 14 days
Procedure: as §4

wild oat = test: Test B postemergence herbicide test; type: in vivo, Avena fatua
In short: as §3

large crabgrass = test: Test B pre-/postemergence herbicide test; type: in vivo, Digitaria sanguinalis; conditions: for Plant response rating (0 to 100 scale), Crabgrass, Large: 0 is no effect; for Crabgrass, Large plant response rating: postemergence
In short: as §2

barnyardgrass [8] = test: Test C flooded paddy test; type: in vivo, Echinochloa crus-galli; conditions: for Plant response rating, Barnyardgrass: 500 g ai/ha, visual rating after 12 to 14 days
Procedure: as §4

Surinam grass = test: Test B pre-/postemergence herbicide test; type: in vivo, Urochloa decumbens; conditions: for Plant response rating (0 to 100 scale), Surinam Grass: 0 is no effect
In short: as §2

wheat = test: Test B postemergence herbicide test; type: in vivo, Triticum aestivum; set-up: key to Wheat plant response rating: 0 = no effect, 100 = complete control
In short: as §3

[9] = tested on: small flower umbrella sedge; test: Test B flooded paddy test; type: in vivo, Cyperus difformis; conditions: 1000 g ai/ha, scale 0 to 100 (0 no effect, 100 complete control)
In short: as §3

giant foxtail = test: Test B pre-/postemergence herbicide test; type: in vivo, Setaria faberi; conditions: for Plant response rating (0 to 100 scale), Foxtail, Giant: 0 is no effect; for Foxtail, Giant plant response rating: postemergence
In short: as §2

velvetleaf = test: Test B pre-/postemergence herbicide test; type: in vivo, Abutilon theophrasti; conditions: for Plant response rating (0 to 100 scale), Velvetleaf: 0 is no effect, preemergence
In short: as §2

pigweed = test: Test B pre-/postemergence herbicide test; type: in vivo, Amaranthus retroflexus; conditions: for Plant response rating (0 to 100 scale), Pigweed: 0 is no effect
In short: as §2

[10] = 125 g ai/ha, 100 is complete control, preemergence
[11] = 125 g ai/ha, visual rating, scale 0 (no effect) to 100 (complete control), postemergence
[12] = 500 g ai/ha, visual rating, 0 = no effect, 100 = complete control, preemergence
[13] = postemergence, 500 g ai/ha, scale 0 to 100, 0 is no effect, 100 is complete control
[14] = 125 g ai/ha, visual rating, scale 0 (no effect) to 100 (complete control)
[15] = 500 g ai/ha, scale 0 to 100, 0 is no effect, 100 is complete control
[16] = 125 g ai/ha, scale 0 to 100 (0 no effect, 100 complete control)
[17] = 250 g ai/ha, scale of 0 to 100, 0 is no effect, 100 is complete control
[18] = scale 0 to 100 (0 no effect, 100 complete control)
[19] = 62 g ai/ha, scale 0 to 100 (0 no effect, 100 complete control)
[20] = 125 g ai/ha, 100 is complete control
[21] = Postemergence, 500 g ai/ha, scale 0 (no effect) to 100 (complete control)

## CCNC(=S)c1ccc(F)c(NC(=O)c2cc(C(C)(C)C)nn2CC)c1 [Compound 349]
morningglory; [10]
  Plant response rating (0 to 100 scale), Morningglory: 0
morningglory; [11]
  Morningglory plant response rating: 0
morningglory; [12]
  Plant response rating, Morningglory: 30
morningglory; [13]
  Morningglory plant response rating: 50
Barnyardgrass [1]; [10]
  Plant response rating (0 to 100 scale), Barnyardgrass: 80
Barnyardgrass [1]; [14]
  Barnyardgrass plant response rating: 0
Barnyardgrass [1]; [12]
  Plant response rating, Barnyardgrass: 100
Barnyardgrass [1]; [15]
  Barnyardgrass plant response rating: 10
lambsquarters; [10]
  Plant response rating (0 to 100 scale), Lambsquarters: 100
lambsquarters; [11]
  Lambsquarters plant response rating: 0
lambsquarters; [12]
  Plant response rating, Lambsquarters: 100
lambsquarters; [13]
  Lambsquarters plant response rating: 80
corn; [10]
  Plant response rating (0 to 100 scale), Corn: 70
corn; [14]
  Corn plant response rating: 0
corn; [12]
  Plant response rating, Corn: 80
corn; [15]
  Corn plant response rating: 10
blackgrass; [14]
  Blackgrass plant response rating: 20
blackgrass; [15]
  Blackgrass plant response rating: 80
Rice [2]
  Rice plant response rating: 70
Barnyardgrass [3]
  Barnyardgrass plant response rating: 80
[4]; 62 g ai/ha, scale 0 to 100
  Sedge, Umbrella plant response rating: 80
[4]; [16]
  Sedge, Umbrella plant response rating: 85
[4]; [17]
  Sedge, Umbrella plant response rating: 90
[4]; 500 g ai/ha, visual rating after 12 to 14 days, scale 0 to 100 (0 no effect, 100 complete control)
  Plant response rating, Sedge, Umbrella: 95
Ducksalad [5]; 62 g ai/ha, scale 0 to 100
  Ducksalad plant response rating: 80
Ducksalad [5]; [16]
  Ducksalad plant response rating: 85
Ducksalad [5]; [17]
  Ducksalad plant response rating: 85
Ducksalad [5]; [18]
  Plant response rating, Ducksalad: 95
Ducksalad [6]
  Ducksalad plant response rating: 90
cocklebur; [10]
  Plant response rating (0 to 100 scale), Cocklebur: 0
cocklebur; [14]
  Cocklebur plant response rating: 0
cocklebur; [12]
  Plant response rating, Cocklebur: 80
cocklebur; [15]
  Cocklebur plant response rating: 20
Rice [7]; 62 g ai/ha, scale 0 to 100
  Rice plant response rating: 50
Rice [7]; [16]
  Rice plant response rating: 55
Rice [7]; [17]
  Rice plant response rating: 60
Rice [7]; [18]
  Plant response rating, Rice: 70
Wild oat; [11]
  Oat, Wild plant response rating: 10
Wild oat; [13]
  Oat, Wild plant response rating: 40
Large crabgrass; [10]
  Plant response rating (0 to 100 scale), Crabgrass, Large: 100
Large crabgrass; [14]
  Crabgrass, Large plant response rating: 20
Large crabgrass; [12]
  Plant response rating, Crabgrass, Large: 100
Large crabgrass; [15]
  Crabgrass, Large plant response rating: 20
Barnyardgrass [8]; [19]
  Barnyardgrass plant response rating: 45
Barnyardgrass [8]; [16]
  Barnyardgrass plant response rating: 70
Barnyardgrass [8]; [17]
  Barnyardgrass plant response rating: 90
Barnyardgrass [8]; [18]
  Plant response rating, Barnyardgrass: 95
Surinam grass; [10]
  Plant response rating (0 to 100 scale), Surinam Grass: 50
Surinam grass; [11]
  Surinam Grass plant response rating: 0
Surinam grass; [12]
  Plant response rating, Surinam Grass: 90
Surinam grass; [13]
  Surinam Grass plant response rating: 20
wheat; [11]
  Wheat plant response rating: 0
wheat; [13]
  Wheat plant response rating: 10
[9]
  Sedge, Umbrella plant response rating: 80
Giant foxtail; [10]
  Plant response rating (0 to 100 scale), Foxtail, Giant: 70
Giant foxtail; [14]
  Foxtail, Giant plant response rating: 0
Giant foxtail; [12]
  Plant response rating, Foxtail, Giant: 100
Giant foxtail; [15]
  Foxtail, Giant plant response rating: 30
velvetleaf; [20]
  Plant response rating (0 to 100 scale), Velvetleaf: 30
velvetleaf; [11]
  Velvetleaf plant response rating: 0
velvetleaf; [13]
  Velvetleaf plant response rating: 40
pigweed; [10]
  Plant response rating (0 to 100 scale), Pigweed: 100
pigweed; [11]
  Pigweed plant response rating: 0
pigweed; [12]
  Plant response rating, Pigweed: 100
pigweed; [13]
  Pigweed plant response rating: 70

## CCc1nn(C(C)(C)CC)nc1C(=O)Nc1cccc(C(=O)N2CC=CC2)c1 [Compound 369]
morningglory; [10]
  Plant response rating (0 to 100 scale), Morningglory: 0
morningglory; [11]
  Morningglory plant response rating: 0
morningglory; [21]
  Morningglory plant response rating: 20
Barnyardgrass [1]; [10]
  Plant response rating (0 to 100 scale), Barnyardgrass: 30
Barnyardgrass [1]; [14]
  Barnyardgrass plant response rating: 10
Barnyardgrass [1]; [15]
  Barnyardgrass plant response rating: 20
lambsquarters; [10]
  Plant response rating (0 to 100 scale), Lambsquarters: 100
lambsquarters; [11]
  Lambsquarters plant response rating: 20
lambsquarters; [21]
  Lambsquarters plant response rating: 70
corn; [10]
  Plant response rating (0 to 100 scale), Corn: 20
corn; [14]
  Corn plant response rating: 10
corn; [15]
  Corn plant response rating: 10
blackgrass; [14]
  Blackgrass plant response rating: 0
blackgrass; [15]
  Blackgrass plant response rating: 30
Rice [2]
  Rice plant response rating: 60
Barnyardgrass [3]
  Barnyardgrass plant response rating: 50
[4]; 62 g ai/ha, scale 0 to 100
  Sedge, Umbrella plant response rating: 75
[4]; [16]
  Sedge, Umbrella plant response rating: 75
[4]; [17]
  Sedge, Umbrella plant response rating: 85
Ducksalad [5]; 62 g ai/ha, scale 0 to 100
  Ducksalad plant response rating: 80
Ducksalad [5]; [16]
  Ducksalad plant response rating: 80
Ducksalad [5]; [17]
  Ducksalad plant response rating: 80
Ducksalad [5]; [18]
  Plant response rating, Ducksalad: 80
Ducksalad [6]
  Ducksalad plant response rating: 90
cocklebur; [10]
  Plant response rating (0 to 100 scale), Cocklebur: 0
cocklebur; [14]
  Cocklebur plant response rating: 20
cocklebur; [15]
  Cocklebur plant response rating: 70
Rice [7]; 62 g ai/ha, scale 0 to 100
  Rice plant response rating: 55
Rice [7]; [16]
  Rice plant response rating: 60
Rice [7]; [17]
  Rice plant response rating: 60
Rice [7]; [18]
  Plant response rating, Rice: 65
Wild oat; [11]
  Oat, Wild plant response rating: 20
Wild oat; [21]
  Oat, Wild plant response rating: 30
Large crabgrass; [10]
  Plant response rating (0 to 100 scale), Crabgrass, Large: 20
Large crabgrass; [14]
  Crabgrass, Large plant response rating: 10
Large crabgrass; [15]
  Crabgrass, Large plant response rating: 20
Barnyardgrass [8]; [19]
  Barnyardgrass plant response rating: 10
Barnyardgrass [8]; [16]
  Barnyardgrass plant response rating: 45
Barnyardgrass [8]; [17]
  Barnyardgrass plant response rating: 50
Barnyardgrass [8]; [18]
  Plant response rating, Barnyardgrass: 65
Surinam grass; [10]
  Plant response rating (0 to 100 scale), Surinam Grass: 0
Surinam grass; [11]
  Surinam Grass plant response rating: 10
Surinam grass; [21]
  Surinam Grass plant response rating: 10
wheat; [11]
  Wheat plant response rating: 0
wheat; 500 g ai/ha, scale 0 to 100, 0 no effect, 100 complete control, preemergence
  Wheat plant response rating: 0
wheat; [21]
  Wheat plant response rating: 0
[9]
  Sedge, Umbrella plant response rating: 80
Giant foxtail; [10]
  Plant response rating (0 to 100 scale), Foxtail, Giant: 20
Giant foxtail; [14]
  Foxtail, Giant plant response rating: 20
Giant foxtail; [15]
  Foxtail, Giant plant response rating: 30
velvetleaf; [20]
  Plant response rating (0 to 100 scale), Velvetleaf: 0
velvetleaf; [11]
  Velvetleaf plant response rating: 10
velvetleaf; [21]
  Velvetleaf plant response rating: 60
pigweed; [10]
  Plant response rating (0 to 100 scale), Pigweed: 80
pigweed; [11]
  Pigweed plant response rating: 30
pigweed; [21]
  Pigweed plant response rating: 60
